{"source": "patent US5905187A", "about": "(priority 1997, dated 1999)", "format_in_all_cases": "cell-based", "key": {"Fusarium graminearum": {"tested_on": "Fusarium graminearum"}, "Sclerotinia sclerotiorum": {"tested_on": "Sclerotinia sclerotiorum"}, "Sclerotinia trifoliorum": {"tested_on": "Sclerotinia trifoliorum"}, "Fusarium moniliforme": {"tested_on": "Fusarium moniliforme"}, "Aspergillus flavus": {"tested_on": "Aspergillus flavus"}, "Alternaria longipes": {"tested_on": "Alternaria longipes"}, "plant pathogenic fungi": {"tested_on": "plant pathogenic fungi"}}, "note": "“Also recorded” adds a separate entry of the source. No end group written: not given here.", "data": [{"sequence": "RSGRGECRRQCLRRHEGQPWETQECMRRCRRRGG (cysteine pairing not given here) [CMIII]", "values": [{"measurement": "inhibition of Fusarium graminearum", "setting": "Fusarium graminearum; at a concentration of 112 μg/mL", "result": "inhibitory activity"}, {"measurement": "concentration down to which Fusarium graminearum was noticeably inhibited", "setting": "Fusarium graminearum; other studies", "result": 3.8, "unit": "µM"}, {"measurement": "concentrations at which inhibition of S. sclerotiorum was not observed", "setting": "Sclerotinia sclerotiorum", "result": "below 30.4 micromolar"}, {"measurement": "inhibition of Sclerotinia isolates (S. sclerotiorum)", "setting": "Sclerotinia sclerotiorum", "result": "inhibited strongly"}, {"measurement": "inhibition of Sclerotinia sclerotiorum", "setting": "Sclerotinia sclerotiorum", "result": "inhibitory activity"}, {"measurement": "concentrations at which inhibition of S. trifoliorum was not observed", "setting": "Sclerotinia trifoliorum", "result": "below 15.2 micromolar"}, {"measurement": "inhibition of Sclerotinia isolates (S. trifoliorum)", "setting": "Sclerotinia trifoliorum", "result": "inhibited strongly"}, {"measurement": "inhibition of Sclerotinia trifoliorum", "setting": "Sclerotinia trifoliorum", "result": "inhibitory activity"}, {"measurement": "concentration down to which Fusarium moniliforme was noticeably inhibited", "setting": "Fusarium moniliforme", "result": 3.8, "unit": "µM"}, {"measurement": "inhibition of Fusarium moniliforme", "setting": "Fusarium moniliforme", "result": "slightly inhibited; also recorded: not completely inhibited"}, {"measurement": "inhibition of Aspergillus flavus", "setting": "Aspergillus flavus", "result": "slightly inhibited; also recorded: slight inhibition"}, {"measurement": "effect on A. longipes", "setting": "Alternaria longipes; at 3 μM, yet another study", "result": "not affected"}, {"measurement": "concentration showing noticeable inhibition of Alternaria longipes", "setting": "Alternaria longipes; other studies, most sensitive of the fungi", "result": 1.9, "unit": "µM"}, {"measurement": "CMIII activity in the presence of plant cell extracts", "setting": "plant pathogenic fungi", "result": "reduced substantially"}]}]}
